In ChEMBL document CHEMBL4308852, “GNE-371, a Potent and Selective Chemical Probe for the Second Bromodomains of Human Transcription-Initiation-Factor TFIID Subunit 1 and Transcription-Initiation-Factor TFIID Subunit 1-like” (J Med Chem, 2018):
pIC50, pKd: −log10 of the molar value. Converted amounts (≈) assume the structure as drawn. The source made the active and inactive calls. The rule behind the calls is not given here.

Molecular target: T1, Chromatin remodeling regulator CECR2 (Homo sapiens, UniProt Q9BXF3)
Conditions: not given

T1 sequence (Q9BXF3 whole entry): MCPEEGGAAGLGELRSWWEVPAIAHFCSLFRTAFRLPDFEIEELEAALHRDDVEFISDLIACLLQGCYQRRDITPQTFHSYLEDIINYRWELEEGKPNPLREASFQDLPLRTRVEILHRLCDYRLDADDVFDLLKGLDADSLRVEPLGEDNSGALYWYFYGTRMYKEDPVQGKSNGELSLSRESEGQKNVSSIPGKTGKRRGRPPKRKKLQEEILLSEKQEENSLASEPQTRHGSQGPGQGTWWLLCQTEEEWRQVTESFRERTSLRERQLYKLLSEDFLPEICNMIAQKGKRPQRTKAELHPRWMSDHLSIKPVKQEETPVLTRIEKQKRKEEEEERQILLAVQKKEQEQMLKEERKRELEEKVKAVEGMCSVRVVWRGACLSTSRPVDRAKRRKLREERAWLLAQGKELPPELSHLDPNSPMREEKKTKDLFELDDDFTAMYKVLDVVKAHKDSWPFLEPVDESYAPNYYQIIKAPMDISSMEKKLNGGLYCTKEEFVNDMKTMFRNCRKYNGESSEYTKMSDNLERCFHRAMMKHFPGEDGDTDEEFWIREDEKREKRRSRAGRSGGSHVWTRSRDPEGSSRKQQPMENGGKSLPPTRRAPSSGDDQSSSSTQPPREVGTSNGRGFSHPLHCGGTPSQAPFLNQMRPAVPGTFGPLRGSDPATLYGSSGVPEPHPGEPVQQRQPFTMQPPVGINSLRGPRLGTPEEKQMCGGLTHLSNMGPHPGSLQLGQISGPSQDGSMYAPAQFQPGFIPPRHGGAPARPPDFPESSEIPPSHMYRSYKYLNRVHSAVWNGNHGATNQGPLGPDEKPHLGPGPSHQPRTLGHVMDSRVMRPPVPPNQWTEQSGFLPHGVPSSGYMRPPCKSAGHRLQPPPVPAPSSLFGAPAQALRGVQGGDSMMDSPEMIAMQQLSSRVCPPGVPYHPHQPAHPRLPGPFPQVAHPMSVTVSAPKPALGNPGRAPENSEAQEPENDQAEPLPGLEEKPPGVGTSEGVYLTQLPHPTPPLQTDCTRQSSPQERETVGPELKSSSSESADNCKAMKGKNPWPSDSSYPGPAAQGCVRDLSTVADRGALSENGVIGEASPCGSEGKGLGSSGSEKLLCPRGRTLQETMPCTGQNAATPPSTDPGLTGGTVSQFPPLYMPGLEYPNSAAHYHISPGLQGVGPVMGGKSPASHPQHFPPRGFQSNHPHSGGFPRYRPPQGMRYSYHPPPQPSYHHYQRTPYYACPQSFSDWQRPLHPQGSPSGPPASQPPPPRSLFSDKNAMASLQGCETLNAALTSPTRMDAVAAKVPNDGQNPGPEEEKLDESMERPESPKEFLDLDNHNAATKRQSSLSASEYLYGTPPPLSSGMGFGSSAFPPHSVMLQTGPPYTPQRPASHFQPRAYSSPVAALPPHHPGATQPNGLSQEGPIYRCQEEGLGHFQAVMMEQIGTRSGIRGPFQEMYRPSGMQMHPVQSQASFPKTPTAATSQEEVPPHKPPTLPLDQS

| Compound | pKd |
| --- | --- |
| C=CCCn1cc(-c2cc(C(=O)N3CCOCC3)cc3c2ncn3C)c2cc[nH]c2c1=O | 5.92 |

Molecular target: T2, Bromodomain-containing protein 4 (Homo sapiens, UniProt O60885)
Conditions: 20 uM

| Compound | inhibition |
| --- | --- |
| C=CCCn1cc(-c2cc(C(=O)N3CCOCC3)cc3c2ncn3C)c2cc[nH]c2c1=O | inactive |

Molecular target: T3, Transcription initiation factor TFIID subunit 1 (Homo sapiens, UniProt P21675)
Test: Inhibition of recombinant His-tagged TAF1 bromodomain 1 (unknown origin) after 10 mins by TR-FRET assay
Conditions: not given

T3 sequence (P21675 whole entry): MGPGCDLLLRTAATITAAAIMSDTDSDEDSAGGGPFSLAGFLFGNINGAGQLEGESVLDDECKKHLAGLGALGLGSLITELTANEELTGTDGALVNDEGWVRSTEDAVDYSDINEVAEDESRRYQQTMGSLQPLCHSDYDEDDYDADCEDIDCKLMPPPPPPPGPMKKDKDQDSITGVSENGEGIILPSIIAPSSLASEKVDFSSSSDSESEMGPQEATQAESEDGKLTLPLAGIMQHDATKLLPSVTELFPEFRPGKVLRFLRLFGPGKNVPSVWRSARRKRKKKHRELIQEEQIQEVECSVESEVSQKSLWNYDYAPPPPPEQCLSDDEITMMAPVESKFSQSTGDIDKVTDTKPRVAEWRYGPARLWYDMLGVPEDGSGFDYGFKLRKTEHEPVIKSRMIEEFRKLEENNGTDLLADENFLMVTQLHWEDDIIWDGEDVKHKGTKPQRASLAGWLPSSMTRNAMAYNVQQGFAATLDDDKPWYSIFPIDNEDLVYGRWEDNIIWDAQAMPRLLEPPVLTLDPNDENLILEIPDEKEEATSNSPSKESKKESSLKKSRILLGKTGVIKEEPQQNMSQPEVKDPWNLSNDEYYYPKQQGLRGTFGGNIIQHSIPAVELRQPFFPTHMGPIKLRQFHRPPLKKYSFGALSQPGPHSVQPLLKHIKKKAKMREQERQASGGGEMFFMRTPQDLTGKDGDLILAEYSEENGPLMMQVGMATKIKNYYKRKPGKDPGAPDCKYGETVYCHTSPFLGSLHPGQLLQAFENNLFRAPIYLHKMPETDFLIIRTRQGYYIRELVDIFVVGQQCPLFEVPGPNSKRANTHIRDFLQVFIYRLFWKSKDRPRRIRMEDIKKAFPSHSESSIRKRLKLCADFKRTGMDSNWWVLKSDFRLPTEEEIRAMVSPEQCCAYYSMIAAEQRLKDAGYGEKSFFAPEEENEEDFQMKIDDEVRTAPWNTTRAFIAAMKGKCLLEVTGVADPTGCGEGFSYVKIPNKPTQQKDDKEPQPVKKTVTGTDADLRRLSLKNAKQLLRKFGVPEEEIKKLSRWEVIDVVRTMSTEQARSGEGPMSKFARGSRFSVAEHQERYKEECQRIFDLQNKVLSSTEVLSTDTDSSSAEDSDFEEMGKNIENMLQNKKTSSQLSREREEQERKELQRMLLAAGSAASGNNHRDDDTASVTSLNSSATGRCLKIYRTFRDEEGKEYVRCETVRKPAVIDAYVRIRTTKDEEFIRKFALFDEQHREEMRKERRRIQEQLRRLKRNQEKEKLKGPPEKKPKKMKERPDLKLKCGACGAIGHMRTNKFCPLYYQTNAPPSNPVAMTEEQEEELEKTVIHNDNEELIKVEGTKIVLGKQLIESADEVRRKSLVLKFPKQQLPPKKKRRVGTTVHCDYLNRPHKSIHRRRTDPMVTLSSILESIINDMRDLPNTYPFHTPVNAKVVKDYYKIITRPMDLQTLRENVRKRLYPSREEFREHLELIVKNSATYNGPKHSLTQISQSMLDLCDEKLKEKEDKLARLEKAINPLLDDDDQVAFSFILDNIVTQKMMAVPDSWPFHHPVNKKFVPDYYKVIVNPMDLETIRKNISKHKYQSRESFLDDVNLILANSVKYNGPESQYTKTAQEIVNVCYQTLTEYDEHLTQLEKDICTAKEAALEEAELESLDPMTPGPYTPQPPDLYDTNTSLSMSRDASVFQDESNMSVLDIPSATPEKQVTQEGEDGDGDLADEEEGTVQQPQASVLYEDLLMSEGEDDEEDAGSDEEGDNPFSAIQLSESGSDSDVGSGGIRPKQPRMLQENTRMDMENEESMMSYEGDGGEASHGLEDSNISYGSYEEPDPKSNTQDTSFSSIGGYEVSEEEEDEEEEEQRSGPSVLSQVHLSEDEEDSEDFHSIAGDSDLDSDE

| Compound | pIC50 |
| --- | --- |
| C=CCCn1cc(-c2cccc(C(=O)N3CCN(CCO)CC3)c2)c2cc[nH]c2c1=O | 4.85 |
| C=CCCn1cc(-c2cnc(OC)c(C(=O)N3CCOCC3)c2)c2cc[nH]c2c1=O | 5.16 |
| C=CCCn1cc(-c2cnc(OCC)c(C(=O)N3CCOCC3)c2)c2cc[nH]c2c1=O | 5.28 |
| C=CCCn1cc(-c2cc(C(=O)N3CCOCC3)c3c(c2)ncn3CC)c2cc[nH]c2c1=O | < 4.70 |
| C=CCCn1cc(-c2cccc(C(=O)N(C)C3CCCCC3)c2)c2cc[nH]c2c1=O | 4.89 |

System: NCI-H23
Test: Synergistic cytotoxicity against human H23 cells assessed as reduction in cell viability at 100 nM after 48 hrs in presence of BRD4 inhibitor JQ1 by celltiter-glo assay
Format: functional, cell-based
Conditions: not given

| Compound | Activity |
| --- | --- |
| C=CCCn1cc(-c2cc(C(=O)N3CCOCC3)cc3c2ncn3C)c2cc[nH]c2c1=O | Active |

Molecular target: T2, Bromodomain-containing protein 4
Test: Inhibition of recombinant His-tagged BRD4 bromodomain 1 (unknown origin) after 10 mins by TR-FRET assay
Conditions: not given

| Compound | pIC50 |
| --- | --- |
| C=CCCn1cc(-c2cc(C(=O)N3CCOCC3)cc3[nH]cnc23)c2cc[nH]c2c1=O | < 4.70 |
| C=CCCn1cc(-c2cc(C(=O)N3CCOCC3)c3ncn(CC)c3c2)c2cc[nH]c2c1=O | 5.47 |
| C=CCCn1cc(-c2cc(C#N)cc(C(=O)N3CCOCC3)c2)c2cc[nH]c2c1=O | 5.74 |
| C=CCCn1cc(-c2cccc(C(=O)N3CCN(CCO)CC3)c2)c2cc[nH]c2c1=O | 5.49 |
| C=CCCn1cc(-c2cnc(OC)c(C(=O)N3CCOCC3)c2)c2cc[nH]c2c1=O | 5.07 |
| C=CCCn1cc(-c2cnc(OCC)c(C(=O)N3CCOCC3)c2)c2cc[nH]c2c1=O | 5.20 |
| C=CCCn1cc(-c2cc(OC(F)F)cc(C(=O)N3CCOCC3)c2)c2cc[nH]c2c1=O | 6.22 |
| C=CCCn1cc(-c2cc(C(=O)N3CCOCC3)cc3c2ncn3C)c2cc[nH]c2c1=O | < 4.70 |
| C=CCCn1cc(-c2cc(C(=O)N3CCOCC3)c3c(c2)ncn3C)c2cc[nH]c2c1=O | 5.44 |
| C=CCCn1cc(-c2cc(C(=O)N3CCOCC3)c3ncn(C)c3c2)c2cc[nH]c2c1=O | 5.09 |
| C=CCCn1cc(-c2cc(C(=O)N3CCOCC3)c3c(c2)ncn3CC)c2cc[nH]c2c1=O | 5.70 |
| C=CCCn1cc(-c2cc(F)c(F)c(C(=O)N3CCOCC3)c2)c2cc[nH]c2c1=O | 5.10 |
| C=CCCn1cc(-c2cccc(C(=O)N(C)C3CCCCC3)c2)c2cc[nH]c2c1=O | 6.12 |
| C=CCCn1cc(-c2cc(C(=O)N3CCOCC3)c3nc[nH]c3c2)c2cc[nH]c2c1=O | 5.64 |

Molecular target: T1, Chromatin remodeling regulator CECR2
Test: Inhibition of recombinant His-tagged CECR2 (unknown origin) after 10 mins by TR-FRET assay
Conditions: not given

| Compound | pIC50 |
| --- | --- |
| C=CCCn1cc(-c2cccc(C(=O)N3CCN(CCO)CC3)c2)c2cc[nH]c2c1=O | 5.96 |
| C=CCCn1cc(-c2cnc(OC)c(C(=O)N3CCOCC3)c2)c2cc[nH]c2c1=O | 6.00 |
| C=CCCn1cc(-c2cnc(OCC)c(C(=O)N3CCOCC3)c2)c2cc[nH]c2c1=O | 6.23 |
| C=CCCn1cc(-c2cc(C(=O)N3CCOCC3)cc3c2ncn3C)c2cc[nH]c2c1=O | 5.92 |
| C=CCCn1cc(-c2cc(C(=O)N3CCOCC3)c3c(c2)ncn3C)c2cc[nH]c2c1=O | 6.64 |
| C=CCCn1cc(-c2cc(C(=O)N3CCOCC3)c3ncn(C)c3c2)c2cc[nH]c2c1=O | 6.44 |
| C=CCCn1cc(-c2cc(C(=O)N3CCOCC3)c3c(c2)ncn3CC)c2cc[nH]c2c1=O | 5.59 |
| C=CCCn1cc(-c2cccc(C(=O)N(C)C3CCCCC3)c2)c2cc[nH]c2c1=O | 5.40 |

Molecular target: T2, Bromodomain-containing protein 4
Test: Inhibition of recombinant His-tagged BRD4 bromodomain 2 (unknown origin) after 10 mins by TR-FRET assay
Conditions: not given

| Compound | pIC50 |
| --- | --- |
| C=CCCn1cc(-c2cc(C(=O)N3CCOCC3)cc3[nH]cnc23)c2cc[nH]c2c1=O | < 4.70 |
| C=CCCn1cc(-c2cc(C(=O)N3CCOCC3)c3ncn(CC)c3c2)c2cc[nH]c2c1=O | 5.17 |
| C=CCCn1cc(-c2cc(C#N)cc(C(=O)N3CCOCC3)c2)c2cc[nH]c2c1=O | 5.30 |
| C=CCCn1cc(-c2cccc(C(=O)N3CCN(CCO)CC3)c2)c2cc[nH]c2c1=O | 5.30 |
| C=CCCn1cc(-c2cnc(OC)c(C(=O)N3CCOCC3)c2)c2cc[nH]c2c1=O | 5.02 |
| C=CCCn1cc(-c2cnc(OCC)c(C(=O)N3CCOCC3)c2)c2cc[nH]c2c1=O | 5.12 |
| C=CCCn1cc(-c2cc(OC(F)F)cc(C(=O)N3CCOCC3)c2)c2cc[nH]c2c1=O | 5.05 |
| C=CCCn1cc(-c2cc(C(=O)N3CCOCC3)cc3c2ncn3C)c2cc[nH]c2c1=O | < 4.70 |
| C=CCCn1cc(-c2cc(C(=O)N3CCOCC3)c3c(c2)ncn3C)c2cc[nH]c2c1=O | 5.36 |
| C=CCCn1cc(-c2cc(C(=O)N3CCOCC3)c3ncn(C)c3c2)c2cc[nH]c2c1=O | 4.92 |
| C=CCCn1cc(-c2cc(C(=O)N3CCOCC3)c3c(c2)ncn3CC)c2cc[nH]c2c1=O | 6.00 |
| C=CCCn1cc(-c2cc(F)c(F)c(C(=O)N3CCOCC3)c2)c2cc[nH]c2c1=O | 4.77 |
| C=CCCn1cc(-c2cccc(C(=O)N(C)C3CCCCC3)c2)c2cc[nH]c2c1=O | 5.62 |
| C=CCCn1cc(-c2cc(C(=O)N3CCOCC3)c3nc[nH]c3c2)c2cc[nH]c2c1=O | 5.36 |

Molecular target: Transcription initiation factor TFIID subunit 1-like (Homo sapiens, UniProt Q8IZX4)
Test: Binding affinity to recombinant human full length DNA-tagged TAF1L bromodomain 2 (1523 to 1654 residues) expressed in bacterial expression system by bromoscan assay
Conditions: not given

| Compound | pKd |
| --- | --- |
| C=CCCn1cc(-c2cc(C(=O)N3CCOCC3)cc3c2ncn3C)c2cc[nH]c2c1=O | 8.30 |

Molecular target: CREB-binding protein (Homo sapiens, UniProt Q92793)
Test: Inhibition of recombinant His-tagged CBP (unknown origin) after 10 mins by TR-FRET assay
Conditions: not given

| Compound | pIC50 |
| --- | --- |
| C=CCCn1cc(-c2cccc(C(=O)N3CCN(CCO)CC3)c2)c2cc[nH]c2c1=O | < 4.70 |
| C=CCCn1cc(-c2cccc(C(=O)N(C)C3CCCCC3)c2)c2cc[nH]c2c1=O | < 4.70 |

Molecular target: T2, Bromodomain-containing protein 4
Test: Binding affinity to recombinant human full length DNA-tagged BRD4 short isoform expressed in bacterial expression system by bromoscan assay
Conditions: not given

| Compound | pKd |
| --- | --- |
| C=CCCn1cc(-c2cc(C(=O)N3CCOCC3)cc3c2ncn3C)c2cc[nH]c2c1=O | 5.05 |

Molecular target: T3, Transcription initiation factor TFIID subunit 1
Test: Inhibition of recombinant His-tagged TAF1 bromodomain 2 (unknown origin) after 10 mins by TR-FRET assay
Conditions: not given

| Compound | pIC50 |
| --- | --- |
| C=CCCn1cc(-c2cccc(C(=O)N3CCN(CCO)CC3)c2)c2cc[nH]c2c1=O | 7.08 |
| C=CCCn1cc(-c2cnc(OC)c(C(=O)N3CCOCC3)c2)c2cc[nH]c2c1=O | 8.15 |
| C=CCCn1cc(-c2cnc(OCC)c(C(=O)N3CCOCC3)c2)c2cc[nH]c2c1=O | 8.40 |
| C=CCCn1cc(-c2cc(C(=O)N3CCOCC3)c3c(c2)ncn3CC)c2cc[nH]c2c1=O | 7.80 |
| C=CCCn1cc(-c2cccc(C(=O)N(C)C3CCCCC3)c2)c2cc[nH]c2c1=O | 7.17 |

System: not listed separately
Test: Kinetic solubility of the compound
Format: physicochemical
Conditions: read-out: Kinetic_solubility

| Compound | solubility kinetic |
| --- | --- |
| C=CCCn1cc(-c2cc(C(=O)N3CCOCC3)cc3c2ncn3C)c2cc[nH]c2c1=O | 121 µM (≈ 52.2 µg/mL) |
